In PMC10353061 (ACS Pharmacology & Translational Science, 2023):

Test system: HCT116 xenograft
Assay: In vivo HCT116 xenograft tumor growth inhibition
Parameters: species or system BALB/C^nu/nu mice
Experimental: Ten-week-old female BALB/C^nu/nu mice were inoculated subcutaneously with HCT116 cells (1 × 10^8 cells/mL) at the logarithmic growth phase. Compound 9 (100 μL, 25 mg/kg) was administered through an intraperitoneal injection every 2 days after tumorigenesis. Mice were euthanized on day 30, and tumors on the backs were collected for the measurement of tumor volume and weight.
Figure 12 Compound 9 inhibited the in vivo tumorigenicity of human colorectal cancer line HCT116. (A) Tumor tissues. (B) Top panel. The volume of tumors originating. *p < 0.05 vs. the control group; t-test; n = 4. (B) Bottom panel. The weight of tumors originating. *p < 0.05 vs. the control group; t-test; n = 4. […] Magnification 200×.
Nuclear protein Ki67 is a proliferation marker of tumor cell proliferation and is an indicator in cancer diagnosis through a biopsy.[38] CD31 is a marker of angiogenesis, along with the vascular endothelial growth factor (VEGF).[39] CD31 has been found in the angiogenetic early breast cancer tissues and is highly expressed on the surface of endothelial cells.[40]
Briefly, all 10-week-old female BALB/C^nu/nu mice (8 mice) were purchased from the Shanghai University of Traditional Chinese Medicine with Institutional Animal Care and Use Committee approval in accordance with institutional guidelines. All mice were randomly divided into […]. In the #1 group (4 mice), 1 × 10^8 cells/mL from HCT116 at the logarithmic growth phase were harvested and inoculated subcutaneously into BALB/C^nu/nu mice and intraperitoneally injected with 100 μL of compound 9 (25 mg/kg) every 2 days after tumorigenesis. In the #2 group (4 mice), 1 × 10^8 cells/mL from […] at the logarithmic growth phase were harvested and inoculated subcutaneously into BALB/C^nu/nu mice and intraperitoneally injected 100 μL of saline every 2 days after tumorigenesis. After continuous feeding for 30 days, the mice were sacrificed, and the tumors were removed. The tumors were weighed, and the volumes were calculated using the following formula: tumor volume (cm^3) = (ab^2)/2 (a: the longest axis (cm), b: the shortest axis (cm))
Briefly, fresh tissues were immersed in 4% paraformaldehyde (Sigma-Aldrich) for fixation at room temperature for 30 min. The tissues were then dehydrated in an ethanol gradient, embedded in paraffin, sectioned (thickness: 6 μm), and immersed in xylene for dewaxing. Tissue sections were blocked with an immunohistochemical blocking solution (Beyotime Biotechnology Co., Ltd., Zhejiang, China) at 37 °C for 30 min. The blocking solution was then discarded, and the sections were washed 3 times at room temperature for 5 min each with an immunohistochemical washing solution (Beyotime Biotechnology). […]

[1] = 25 mg/kg i.p. every 2 days, day 30
[2] = immunofluorescence staining, 25 mg/kg i.p.

Compound: O=S(=O)(Nc1ccc(-c2ccccn2)cc1)c1ccc(Br)cc1 [Compound 9, 4-Bromo-N-(4-(pyridin-2-yl)phenyl)benzenesulfonamide]
- tumor volume vs control group (saline) [1]: significantly smaller
- tumor weight vs control group (saline) [1]: significantly smaller
- expression of angiogenesis marker CD31 in tumor tissues [2]: significantly lower expression
- expression of proliferation factor Ki67 in tumor tissues [2]: significantly lower expression
